Where two headings read alike, the source gives them in different places.
What was measured:
ovarian cancer (1A9) = test: in vitro cytotoxicity assay, 1A9; conditions: read-out: Cytotoxicity (ED50) 1A9 (OVCAR)
Experimental: (§1) Biological Assay. The in vitro cytotoxicity assay was carried out according to procedures described in Rubinstein et al. (P. Ferguson et al., Cancer Res. 1988, 48, 5956-5964). […] The human tumor cell line panel consisted of epiderimoid carcinoma of the nasopharynx (KB), lung carcinoma (A-549), ileocecal carcinoma (HCT-8), renal cancer (CAKI-1), breast cancer (MCF-7), melanoma cancer (SKMEL-2), and ovarian cancer (1A9). The drug resistant cell line panel consisted of three KB-derivatives, -7d, -CPT, and -VCR. The properties of these cells are described elsewhere (P. Ferguson et al., Cancer Res. 1988, 48, 5956-5964; D. Beidler et al., Cancer Res. 1996, 56, 345-353). […] They were a generous gift of Dr. P. Giannakakou (P. Giannakakou et al., J. Biol. Chem. 1997, 27, 17118-17125). Cells were cultured at 37° C. in RPMI-1640 with 100 ug/mL kanamycin and 10% (v/v) fetal bovine serum in a humidified atmosphere containing 5% CO2. Initial seeding densities varied among the cell lines to ensure a final absorbance of 1-2.5 A562 units. Drug exposure was for 3 days, and the ED50 value, the drug concentration that reduced the absorbance by 50%, was interpolated from dose-response data.

[1] = test system: melanoma cancer (SKMEL-2); test: in vitro cytotoxicity assay, SK-MEL-2; conditions: read-out: Cytotoxicity (ED50) SK-MEL-2
Experimental: as §1

breast cancer (MCF-7) = test: in vitro cytotoxicity assay, MCF-7; conditions: read-out: Cytotoxicity (ED50) MCF-7
Experimental: as §1

[2] = test system: ileocecal carcinoma (HCT-8); test: in vitro cytotoxicity assay, HCT-8; conditions: read-out: Cytotoxicity (ED50) HCT-8
Experimental: as §1

lung carcinoma (A-549) = test: in vitro cytotoxicity assay, A549; conditions: read-out: Cytotoxicity (ED50) A549
Experimental: as §1

PAX-10 = test: cytotoxicity in paclitaxel-resistant 1A9 sub-line PAX-10; format: cell-based, human; conditions: PAX-10 paclitaxel-resistant 1A9 sub-line
Experimental: as §1
(§2) The newly synthesized taxoid-4′-O-demethyl epipodophyllotoxin conjugates were evaluated in house using standard cytotoxicity assays in human tumor (HTCL) and drug-resistant (DRCL) cell lines. Reference compounds were paclitaxel (1), cephalomannine (2), and epipodophyllotoxins [etoposide (5) and GL-331 (7), see FIG. 1]. The HTCL panel was comprised of KB, A549, HCT-8, CAKI-1, MCF-7, SK-MEL-2, and 1A9 cell lines. Two paclitaxel-resistant 1A9 sub-lines designated as PAX-10 and PAX-22 were also tested as part of the DRCL panel. Other resistant-cell lines were KB derivatives expressing various mechanisms or multi-drug resistance as described elsewhere (P. Ferguson et al., Cancer Res. 1988, 48, 5956-5964; D. Beidler et al., Cancer Res. 1996, 56, 345-353).

renal cancer (CAKI-1) = test: in vitro cytotoxicity assay, CAKI-1; conditions: read-out: Cytotoxicity (ED50) CAKI-1
Experimental: as §1

[3] = test system: epiderimoid carcinoma of the nasopharynx (KB); test: in vitro cytotoxicity assay, KB; format: cell-based, human; conditions: drug exposure 3 days
Experimental: as §1

[4] = test system: protein-linked DNA breaks (PLDB); conditions: drug treated cells; earlier work; cited from earlier work
[5] = test system: human KB and DU-145 tumor cells in nude mice; conditions: earlier work; cited from earlier work
[6] = test system: Non-small cell lung cancer cell lines; test: NCI human tumor cell lines, NSCL; format: cell-based; conditions: average over all cell lines of the tumor type; data provided by the NCI
melanoma cell lines = test: NCI human tumor cell lines, melanoma; format: cell-based; conditions: average over all cell lines of the tumor type; data provided by the NCI
KB-7d = test: cytotoxicity in drug resistant cell line KB-7d; format: cell-based, human; conditions: KB-7d drug resistant KB derivative
Experimental: as §1, §2

[7] = test system: human tumor (HTCL) cell lines; test: standard cytotoxicity assays in human tumor cell lines (HTCL panel, overall); conditions: summary of Table 2
Experimental: as §1
The newly synthesized taxoid-4′-O-demethyl epipodophyllotoxin conjugates were evaluated in house using standard cytotoxicity assays in human tumor (HTCL) and drug-resistant (DRCL) cell lines. […]

leukemia cell lines = test: NCI human tumor cell lines, leukemia; format: cell-based; conditions: average over all cell lines of the tumor type; data provided by the NCI
Topoisomerase II = Topoisomerase II activity assay (inhibition of topo II in vitro); format: biochemical; conditions: NA^1 not active at 50 uM, NA^2 not active at 100 uM
From the text: (§3) Protein-Linked DNA Break and Topoisomerase 11 Activity Assays. The procedures were done according to detailed published methods (K. Bastow et al., Bioorg. Med. Chem. 1997, 5, 1481-1488).

PAX-22 = test: cytotoxicity in paclitaxel-resistant 1A9 sub-line PAX-22; format: cell-based, human; conditions: PAX-22 paclitaxel-resistant 1A9 sub-line
Experimental: as §1, §2

ovarian cell lines = test: NCI human tumor cell lines, ovarian; format: cell-based; conditions: average over all cell lines of the tumor type; data provided by the NCI
KB-VCR = test: cytotoxicity in drug resistant cell line KB-VCR; format: cell-based, human; conditions: KB-VCR drug resistant KB derivative
Experimental: as §1, §2

[8] = test system: Central nervous system cancer cell lines; test: NCI human tumor cell lines, CNS; format: cell-based; conditions: average over all cell lines of the tumor type; data provided by the NCI
KB-CPT = test: cytotoxicity in drug resistant cell line KB-CPT; format: cell-based, human; conditions: KB-CPT drug resistant KB derivative
Experimental: as §1, §2

[9] = test system: Cellular protein-DNA complex formation; test: Protein-linked DNA break assay (cellular protein-DNA complex formation); format: cell-based; conditions: for Cellular protein-DNA complex formation: Etoposide given as 100, NA^1 not active at 50 uM, NA^2 not active at 100 uM
From the text: as §3

[10] = test system: paclitaxel resistant cells; test: cytotoxicity against paclitaxel resistant cells (overall); format: cell-based, human; conditions: compared with the unconjugated components, Table 3
Experimental: as §1, §2

Colon cell lines = test: NCI human tumor cell lines, colon; format: cell-based; conditions: average over all cell lines of the tumor type; data provided by the NCI
prostate cell lines = test: NCI human tumor cell lines, prostate; format: cell-based; conditions: average over all cell lines of the tumor type; data provided by the NCI
[11] = 1A9 (OVCAR), drug exposure 3 days
[12] = SK-MEL-2, drug exposure 3 days, NA = not active
[13] = HCT-8, drug exposure 3 days, NA = not active
[14] = A549, drug exposure 3 days, NA = not active

| SMILES | EC50 (ovarian cancer (1A9); Homo sapiens, 72 h) | EC50 ([2]; Homo sapiens, HCT-8, 72 h) | EC50 (lung carcinoma (A-549); Homo sapiens, A549, 72 h) | Resistance Fold PAX-10 (PAX-10) | Cytotoxicity (ED50) KB [3] | EC50 (ovarian cancer (1A9); [11]) | EC50 [1, 12] | EC50 (breast cancer (MCF-7); MCF-7, drug exposure 3 days) | EC50 [2, 13] | EC50 (lung carcinoma (A-549); [14]) | EC50 (renal cancer (CAKI-1); CAKI-1, drug exposure 3 days) | Resistance Fold KB-7d (KB-7d) | Inhibition of Topo II IC100 (Topoisomerase II) | Resistance Fold PAX-22 (PAX-22) | Resistance Fold KB-VCR (KB-VCR) | Resistance Fold KB-CPT (KB-CPT) | Cellular protein-DNA complex formation [9] | other results |
| --- | --- | --- | --- | --- | --- | --- | --- | --- | --- | --- | --- | --- | --- | --- | --- | --- | --- | --- |
| C/C=C(\C)C(=O)N[C@@H](c1ccccc1)[C@@H](O)C(=O)O[C@H]1C[C@@]2(O)[C@@H](OC(=O)c3ccccc3)[C@@H]3[C@]4(OC(C)=O)CO[C@@H]4C[C@H](O)[C@@]3(C)C(=O)[C@H](OC(C)=O)C(=C1C)C2(C)C [Cephalomannine, cephalomannine, reference compound] | 0.003 µM | 0.047 µM | 0.009 µM | 40 | 0.002 µM |  |  |  |  |  |  |  |  |  |  |  |  | EC50 ([1]; Homo sapiens, SK-MEL-2, 72 h): 0.134 µM; EC50 (breast cancer (MCF-7); Homo sapiens, MCF7, 72 h): 0.167 µM; EC50 (renal cancer (CAKI-1); Homo sapiens, CAKI-1, 72 h): > 0.3 µM |
| CC[C@@]1(O)C(=O)OCc2c1cc1n(c2=O)Cc2c-1nc1ccccc1c2C=Nc1ccc(N[C@@H]2c3cc4c(cc3[C@@H](c3cc(OC)c(O)c(OC)c3)[C@H]3C(=O)OC[C@@H]32)OCO4)cc1 [Compound 3] |  |  |  |  |  |  |  |  |  |  |  |  |  |  |  |  |  | induction of protein-linked DNA breaks (PLDB) (in words) [4]: induced protein-linked DNA breaks (PLDB) in a concentration dependent manner; in vivo antitumor activity (in words) [5]: more active than either etoposide or CPT |
| CC[C@@]1(O)C(=O)OCc2c1cc1n(c2=O)Cc2c-1nc1ccccc1c2C=Nc1ccccc1N[C@@H]1c2cc3c(cc2[C@@H](c2cc(OC)c(O)c(OC)c2)[C@H]2C(=O)OC[C@@H]21)OCO3 [Compound 4] |  |  |  |  |  |  |  |  |  |  |  |  |  |  |  |  |  | induction of protein-linked DNA breaks (PLDB) (in words) [4]: induced protein-linked DNA breaks (PLDB) in a concentration dependent manner |
| C/C=C(\C)C(=O)N[C@@H](c1ccccc1)[C@@H](OC(=O)c1ccc(C=N[C@@H]2c3cc4c(cc3[C@@H](c3cc(OC)c(O)c(OC)c3)[C@H]3C(=O)OC[C@@H]32)OCO4)cc1)C(=O)O[C@H]1C[C@@]2(O)[C@@H](OC(=O)c3ccccc3)[C@@H]3[C@]4(OC(C)=O)CO[C@@H]4C[C@H](O)[C@@]3(C)C(=O)[C@H](OC(C)=O)C(=C1C)C2(C)C [Compound 14] |  |  |  | >36 | 0.03 µM | 0.14 µM | 8.9 µM | 1.23 µM | 2.78 µM | 0.7 µM | > 5 µM |  |  |  |  |  |  |  |
| COc1cc([C@@H]2c3cc4c(cc3[C@@H](Nc3ccc(N=Cc5ccc(C(=O)O[C@@H](C(=O)O[C@H]6C[C@@]7(O)[C@@H](OC(=O)c8ccccc8)[C@@H]8[C@]9(OC(C)=O)CO[C@@H]9C[C@H](O)[C@@]8(C)C(=O)[C@H](OC(C)=O)C(=C6C)C7(C)C)[C@@H](NC(=O)c6ccccc6)c6ccccc6)cc5)cc3)[C@H]3COC(=O)[C@H]23)OCO4)cc(OC)c1O [Compound 15] |  |  |  | >17 | 0.23 µM | 0.3 µM | > 40 µM | 1.86 µM | > 0.1 µM | 2.8 µM | > 4 µM | 1 | 100 µM | 8 | 8 | 1 | 25 +/− 11% | log GI50 NSCL [6]: −5.50; log GI50 melanoma (melanoma cell lines): −5.01; cytotoxicity in human tumor cell lines (in words) [7]: exhibited different cytotoxic activity from both precursors; log GI50 leukemia (leukemia cell lines): −6.02; log GI50 ovarian (ovarian cell lines): −4.95; log GI50 CNS [8]: −5.54; intracellular poisoning / stimulation of protein-DNA breaks in cells (in words) ([9]; in cells): intracellular poisons; activity against paclitaxel resistant cells (in words) [10]: enhanced activity against paclitaxel resistant cells; log GI50 Colon (Colon cell lines): −5.12; log GI50 prostate (prostate cell lines): −5.06 |
| C/C=C(\C)C(=O)N[C@@H](c1ccccc1)[C@@H](OC(=O)c1ccc(C=Nc2ccc(N[C@@H]3c4cc5c(cc4[C@@H](c4cc(OC)c(O)c(OC)c4)[C@H]4C(=O)OC[C@@H]43)OCO5)cc2)cc1)C(=O)O[C@H]1C[C@@]2(O)[C@@H](OC(=O)c3ccccc3)[C@@H]3[C@]4(OC(C)=O)CO[C@@H]4C[C@H](O)[C@@]3(C)C(=O)[C@H](OC(C)=O)C(=C1C)C2(C)C [Compound 16] |  |  |  | 7.5 | 1.40 µM | 1.12 µM | > 40 µM | > 5 µM | > 40 µM | 3.55 µM | > 10 µM |  |  |  |  |  |  | activity against paclitaxel resistant cells (in words) [10]: enhanced activity against paclitaxel resistant cells |
| COc1cc([C@@H]2c3cc4c(cc3[C@@H](O[C@@H]3O[C@@H]5CO[C@@H](C)O[C@H]5[C@H](O)[C@H]3O)[C@H]3COC(=O)[C@H]23)OCO4)cc(OC)c1O [Etoposide, etoposide, reference compound] | 0.6 µM | > 5 µM | 1.95 µM | >16 | 0.20 µM |  |  |  |  |  |  | 119 | 100 µM | >16 | 153 | 1 | 100% | EC50 (breast cancer (MCF-7); Homo sapiens, MCF7, 72 h): > 5 µM; EC50 (renal cancer (CAKI-1); Homo sapiens, CAKI-1, 72 h): 2.2 µM |
| COc1cc([C@@H]2c3cc4c(cc3[C@@H](Nc3ccc([N+](=O)[O-])cc3)[C@H]3COC(=O)[C@H]23)OCO4)cc(OC)c1O [GL-331, reference compound] |  |  |  | 13 | 1.86 µM | 0.2 µM | 5.95 µM | 9.29 µM | 3.38 µM | 0.48 µM | 1.8 µM | 2 | 50 µM | 8 | 3 | 1 | 134 +/− 7% |  |
| CC(=O)O[C@H]1C(=O)[C@@]2(C)[C@H]([C@H](OC(=O)c3ccccc3)[C@]3(O)C[C@H](OC(=O)[C@H](O)[C@@H](NC(=O)c4ccccc4)c4ccccc4)C(C)=C1C3(C)C)[C@]1(OC(C)=O)CO[C@@H]1C[C@@H]2O [Paclitaxel, paclitaxel, reference compound] | 0.002 µM | 0.013 µM | 0.006 µM | 24 | 0.016 µM |  |  |  |  |  |  | 1 |  | 24 | 15 | 1 |  |  |
